From patent US8119116B2, “Therapeutics for cancer using 3-bromopyruvate and other selective inhibitors of ATP production” (John Hopkins University School of Medicine, priority 2001, dated 2012)

Columns and labels:
[1] = system: rabbits harboring liver implanted VX2 tumors; test: Systemic delivery via marginal ear vein, animal toxicity; assay type: in vivo, rabbit; conditions: 25 ml, 0.5 mM via a marginal ear vein
Procedure: Normal tissues and tumors were fixed in 10% formalin, sliced at […] intervals for gross examination, and then embedded completely in paraffin after which […] sections were stained with hemotoxylin and eosin. Tumor viability was estimated by visual inspection and expressed as a percentage of viable tumor area for each slice. The overall percentage of viable tumor in each rabbit was calculated.
Finally, it was important to examine the effect of 3-BrPA when delivered systemically (i.e., via the general circulation) on both animal toxicity and its capacity to damage liver implanted tumors.

VX2 tumor slices = test: Glycolysis (lactic acid formation) in VX2 tumor slices; assay type: cell-based, rabbit
Procedure: Glycolysis was assayed by monitoring the formation of lactic acid following the addition of glucose to a medium containing VX2 tumor slices. Specifically, freshly excised tumors were washed 3 times at 4° C. in 20 ml Chance Hess Medium containing 6.2 mM KCl, 154 mM NaCl, and 11 mM NaPi, pH 7.4. Slices, 1 g each, were then prior incubated for 30 min in a Lab-Line incubator-shaker at 37° C. in 2 ml of the same medium while shaking at 50 rpm. Glucose was then added to give a final concentration of 6 mM, after which the incubation/shaking process was continued with 0.2 ml samples being removed every 30 min for up to 2 h. These samples were subjected to centrifugation at 14,000 rpm in an Eppendorf Centrifuge (Model 5415C). Then, aliquots of the supernatant, 0.01 ml, were removed from each sample, diluted with 0.03 ml of water and subjected to lactic acid determination using the kit supplied by Sigma. The latter contains, in addition to lactic dehydrogenase and NAD+, hydrazine, and glycine buffer, pH 9.2. The mixture was incubated for 30 min at 25° C. after which the absorbance due to formation of NADH was determined at 340 nm using a Gilford Model 260 spectrophotometer. To assess the elevation of the glycolytic activity of the VX2 tumor over that of liver tissue, parallel studies were always carried out in an identical manner with 1 g liver slices derived from the host liver. Finally, in those cases where agents were tested for their capacity to inhibit glycolysis, these were introduced into the system at the prior incubation step with all subsequent steps being run in parallel with those described above for the VX2 tumor or liver alone.
The screen included the following 9 compounds: 2-deoxyglucose (2DOG), 2-fluoro-2-deoxyglucose, 6-fluoro-6-deoxyglucose, 3-O-methyl glucose, 5-thio-D-glucose-6-phosphate, L-glucose, D-xylose, D-lyxose, and 3-bromopyruvic acid (3BrPA). The screen was conducted by incubating VX2 tumor slices in a medium containing 6 mM glucose with 6 mM of each of these agents at 37° C. for 5 h. The use of 6 mM glucose in the medium was used to mimic the maximal amount of glucose that might be in the blood in a real in vivo situation.
With the above preliminary data at hand, only two of the 9 compounds screened were studied in more detail. One was 2DOG because under certain conditions it is known to inhibit glycolysis when it is phosphorylated by hexokinase to 2DOG-6-P which cannot be further metabolized. The other compound tested in more detail was 3BrPA because of its effectiveness as a glycolytic inhibitor in the preliminary screen.

O=C(O)C(=O)CBr [3BrPA, 3-bromopyruvic acid]
animal behavior [1]: normal behavior
histological examination of 9 major tissues ([1]; 4 days): no obvious damage
inhibition of VX2 tumor glycolysis in the limited screen (VX2 tumor slices; 6 mM agent, 6 mM glucose, 37° C., 5 h): almost completely inhibited
IC50 (VX2 tumor slices; Oryctolagus cuniculus, 0.5 h, read-out: half maximal inhibition of glycolysis): 2.4 mM
concentration for maximal or complete inhibition of glycolysis (VX2 tumor slices; VX2 tumor slices, agent prior incubated 30 min at 37° C.): about 15 mM
